The target of one assay is T1, human A3 receptor (Homo sapiens, UniProt P0DMS8).
T1 sequence (P0DMS8 1-318): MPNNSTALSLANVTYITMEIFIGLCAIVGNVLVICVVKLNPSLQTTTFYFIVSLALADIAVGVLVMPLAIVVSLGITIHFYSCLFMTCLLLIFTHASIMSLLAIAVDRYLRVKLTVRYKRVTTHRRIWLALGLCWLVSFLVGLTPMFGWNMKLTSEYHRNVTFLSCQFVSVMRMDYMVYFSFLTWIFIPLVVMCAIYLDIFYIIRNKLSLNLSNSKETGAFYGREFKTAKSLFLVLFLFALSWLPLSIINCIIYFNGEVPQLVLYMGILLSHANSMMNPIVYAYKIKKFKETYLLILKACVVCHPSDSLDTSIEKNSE
The experiment in a line: Radioligand binding, [125I]AB-MECA, HEK-293 cell membranes. Also on record: host or cells: HEK-293. As to conditions: read-out: Ki(hA3). Here is the method:
Natl. Acad. Sci. […] Natl. Acad. Sci. U.S.A. 89:7432-7436, 1992) was performed as described at 4° C. (Olah et al., Mol. Pharmacol. 45:978-982, 1994). The assay medium consisted of a buffer containing 10 mM Mg^2+, 50 mM Tris, 3 units/mL adenosine deaminase, and 1 mM EDTA, at pH 8.0 (4° C.). […] Incubations were terminated by rapid filtration over Whatman GF/B filters, using a Brandell cell harvester (Brandell, Gaithersburg, MD). The tubes were rinsed three times with 3 mL buffer each. At least five different concentrations of competitor, spanning 3 orders of magnitude adjusted appropriately for the IC50 of each compound, were used. IC50 values, calculated with the nonlinear regression method implemented in the InPlot program (Graph-PAD, San Diego, Calif.), were converted to apparent Ki values using the Cheng-Prusoff equation (Cheng et al., Biochem.

The test system of assay [1] is HCE (human ciliary epithelial) cell line, NPE cells. The experiment in a line: Cell volume (shrinkage) of NPE cells in isosmotic solution, Coulter Counter, 5 μM gramicidin. Format: cell-based. The method, then:
A 0.5-ml aliquot of the HCE cell suspension in DMEM was added to 20 ml of each test solution, which contained (in mM): 110.0 NaCl, 15.0HEPES [4-(2-hydroxyethyl)-1-piperazineethanesulfonic acid], 2.5 CaCl2, 1.2 MgCl2, 4.7 KCl, 1.2 KH2PO4, 30.0 NaHCO3, and 10.0 glucose, at a pH of 7.4 and osmolality of 298-305 mOsm. Parallel aliquots of cells were studied on the same day. One aliquot usually served as a control, and the others were exposed to different experimental conditions at the time of suspension. The same amount of solvent vehicle (dimethylformamide, DMSO or ethanol) was always added to the control and experimental aliquots. The sequence of studying the suspensions was varied to preclude systematic time-dependent artifacts (Civan et al., Exp. Eye Res. 54:181-191, 1992).
Cell volumes of isosmotic suspensions were measured with a Coulter Counter (model ZBI-Channelyzer II), using a 100-μm aperture (Civan et al., supra., 1994). As previously described (Wax et al., supra., 1993), the cell volume (vC) of the suspension was taken as the peak of the distribution function. Cell shrinkage was fit as a function of time (t) to a monoexponential function:
vC=v∞+(v0−v∞)−[e^−(t−t^0^)/τ] {1}
where v∞ is the steady-state cell volume, v0 is the cell volume at the first point (t0) of the time course to be fit, and τ is the time constant of the shrinkage. For purposes of data reduction, the data were normalized to the first time point, taken to be 100% isotonic volume. Fits were obtained by nonlinear least-squares regression analysis, permitting both v∞and τ to be variables.
In order to differentiate among these receptors, the experiments were repeated in the present study using a series of agonists and antagonists selective for these receptors. As we wished to identify the effects of these receptors specifically on Cl^− channels, 5 μM gramicidin D was included in all solutions to eliminate any potential contribution from K^+ channels. This ionophore readily partitions into plasma membranes to form a cation-selective pore, and is widely used for studying volume regulation (Hoffmann et al., in Interaction of Cell Volume and Cell Function, Lang et al., eds., Springer, Heidelberg, Germany, pp. 188-248, (ACEP Series 14), 1993)). Under these conditions, release of cell Cl^− becomes the rate-limiting factor in both hypo-(Civan et al., Exp. Eye Res. 54:181-191, 1992) and isoosmotic cell shrinkage (Carre et al., supra., 1997).

Assay [2] has as its system bovine pigmented ciliary epithelial (PE) cells. As to the kind of experiment: Cell volume (shrinkage) of PE cells in isoosmotic suspension, Coulter Counter. The settings on record: DIDS 500 μM, NPPB 100 μM. Type of assay: cell-based.
The test system of assay [3] is bovine PE cells, Cl− currents. The experiment in a line: Ruptured-patch whole-cell recording of PE cells. Format: cell-based. An excerpt:
Harvested cultured PE cells were resuspended and permitted to settle and attach to glass coverslips, which were then transferred to a perfusion chamber (Carré et al., supra., 1997). Solutions were designed to isolate any Cl^- current activated by ATP. […] (Am. J. Physiol., 261:[…]-[…], 1991), as previously described (Carré et al., supra., 1997). Cells were patched while still round, usually one day after dissociation. […] Data were acquired at 1 kHz using Axopatch-1B electronics and associated headstage (Axon Instruments, Foster City, Calif.) and filtered at 500 Hz with a Bessel filter. The micropipettes were double-pulled from Corning No. 7052 glass, coated with Sylgard and fire polished. The membrane potential was held without series-resistance compensation at 0 mV and stepped to voltages over the range from -100 to +100 mV in 20 mV increments for 200 msec periods. The mean current measured between 150-200 msec was used to obtain the patch-clamp data used here. The data presented in FIG. 2 was obtained at -60 mV [the approximate membrane potential (Green et al., Invest. Ophthalmol. Vis. Sci., 26:371-381, 1985)] to facilitate comparison with the volumetric data.

Setting [4] is: FIG. 2D, 100 nM Cl-IB-MECA, IB-MECA in parallel.

Usually Ki stands for the equilibrium dissociation constant of an inhibitor or competing ligand from its target.

Each structure is given as a SMILES string. “Also recorded” adds a separate entry of the source.

For `CCOC(=O)c1c(CCN2C(=O)c3ccccc3C2=O)c(C(=O)SCC)c(CC)[n+](C)c1-c1ccccc1` [Compound 19], the Ki on human A3 receptor worked out at 1.25 µM.

On to `CCCOC(=O)c1c(CC)c(C(=O)SCC)c(CC)[n+](C)c1-c1ccccc1` [Compound 15, 1-Methyl-2-ethyl-4-ethyl-3-(ethylsulfanylcarbonyl)-5-propyloxycarbonyl-6-phenylpyridinium Iodide], for which the Ki on human A3 receptor is 0.483 µM. Same read-out and setting: next, `CCOC(=O)c1c(CC)c(C(=O)SCC)c(CC)[n+](CC)c1-c1ccccc1` [Compound 12, 1-Ethyl-2,4-diethyl-3-(ethylsufanylcarbonyl)-5-ethyloxycarbonyl-6-phenylpyridinium Iodide]: 0.577 µM. On the same count and under the same terms, for `CCCCc1c(C(=O)SCC)c(CC)c(C(=O)OCC)c(-c2ccccc2)[n+]1C` [Compound 20, 1-Methyl-2-butyl-4-ethyl-3-(ethylsulfanylcarbonyl)-5-ethyloxycarbonyl-6-phenylpyridinium Iodide] the value was 0.436 µM. Take `CNC(=O)[C@H]1O[C@@H](n2cnc3c(NCc4cccc(I)c4)nc(Cl)nc32)[C@H](O)[C@@H]1O` [Cl-IB-MECA]: in assay [1] (setting [4]), the “steady-state cell volume (V∞)” value worked out at 97.9±0.2% and the “time constant of the shrinkage (τ)” value is 2.5 ± 1.3 min. `CCSC(=O)c1c(CC)c(C(=O)OCCF)c(-c2ccccc2)[n+](C)c1CC` [Compound 14]: the inhibition constant Ki on human A3 receptor was found to be 0.364 µM. As for `CCC[n+]1c(CC)c(C(=O)SCC)c(CC)c(C(=O)OCC)c1-c1ccccc1` [Compound 13, 1-Propyl-2,4-diethyl-3-(ethylsulfanylcarbonyl)-5-ethyloxycarbonyl-6-phenylpyridinium Iodide], the Ki on human A3 receptor came to 1.35 µM. As for `O=C(O)c1cc([N+](=O)[O-])ccc1NCCCc1ccccc1` [NPPB, 5-nitro-2-(3-phenylpropylamino)-benzoate], in assay [2], the “effect of Cl− channel blocker on ATP, tamoxifen-activated shrinkage” value is recorded as “inhibited the volume reduction; also recorded: abolished the synergistic shrinkage”. The “reduction of the ATP-enhanced currents” value in assay [3] (100 μM NPPB, −60 mV) came out at 56±11%. Also, the “effect of NPPB on ATP-stimulated current” value in assay [3] (FIG. 9B) is listed as “partially inhibited”. Take `CCOC(=O)c1c(CC)c(C(=O)SCC)c(C)[n+](C)c1-c1ccccc1` [Compound 10, 1-Methyl-2-methyl-4-ethyl-3-(ethylsulfanylcarbonyl)-5-ethyloxycarbonyl-6-phenylpyridinium Iodide]: at human A3 receptor, the Ki was determined as 0.379 µM. On the same count and under the same terms, for `CCCOC(=O)c1c(CCC)c(C(=O)SCCCF)c(CC)[n+](C)c1-c1ccccc1` [Compound 17, 1-Methyl-2-ethyl-4-propyl-3-(3-fluoropropylsulfanylcarbonyl)-5-propyloxycarbonyl-6-phenylpyridinium Iodide] the value was 0.465 µM. With `CCNC(=O)[C@H]1O[C@@H](n2cnc3c(N)nc(NCCc4ccc(CCC(=O)O)cc4)nc32)[C@H](O)[C@@H]1O` [CGS-21680, 2-[4-[(2-carboxyethyl)phenyl]ethylamino]-5′-N-ethylcarbamoyladenosine], the “effect of adenosine-receptor agonist on isoosmotic volume” value in assay [1] (100 nM agonist) was “no detectable effect”; in assay [1] (3 μM agonist), “triggered isoosmotic shrinkage”.

On to `CCCOC(=O)c1c(CCC)c(C(=O)SCC)c(CC)[n+](C)c1-c1ccccc1` [Compound 16, 1-Methyl-2-ethyl-4-propyl-3-(ethylsulfanylcarbonyl)-5-propyloxycarbonyl-6-phenylpyridinium Iodide], for which the inhibitory constant (Ki) on human A3 receptor was found to be 2.02 µM. With `CCCOC(=O)c1c(CCC)c(C(=O)SCC)c(CCOCc2ccccc2)[n+](C)c1-c1ccccc1` [Compound 22, 1-Methyl-2-(2-benzyloxylethyl)-4-propyl-3-(ethylsulfanylcarbonyl)-5-propyloxycarbonyl-6-phenylpyridinium Iodide], the Ki at human A3 receptor amounted to 0.348 µM. The same measure, in the same setting: for `CCOC(=O)c1c(CC)c(C(=O)SCC)c(C2CCC2)[n+](C)c1-c1ccccc1` [Compound 21, 1-Methyl-2-cyclobutyl-4-ethyl-3-(ethylsulfanylcarbonyl)-5-ethyloxycarbonyl-6-phenyl pyridinium Iodide] the value was 1.41 µM. Still for that read-out and setting: next, `CCCOC(=O)c1c(CCSC(C)=O)c(C(=O)SCC)c(CC)[n+](C)c1-c1ccccc1` [Compound 18, 1-Methyl-2-ethyl-4-(2-acetylthioethyl)-3-(ethylsulfanylcarbonyl)-5-propyloxycarbonyl-6-phenylpyridinium Iodide]: 0.538 µM. For the molecule `OC[C@H]1O[C@@H](n2cnc3c(NC4CCCC4)ncnc32)[C@H](O)[C@@H]1O` [CPA, N^6-cyclopentyladenosine], the “effect of adenosine-receptor agonist on isoosmotic volume” value is “no significant shrinkage” in assay [1] (30 nM agonist), “small slow effect of uncertain significance; also recorded: little effect” in assay [1] (100 nM agonist), “no significant shrinkage” in assay [1] (1 μM agonist) and “no significant shrinkage; also recorded: none at all” in assay [1] (3 μM agonist).
